System: NFkB
Experiment: NFkB reporter cell line (HT29) stimulated with TNFalpha or gram negative bacterium, in conditioned media
Type: cell-based
Conditions: HT29 NFkB reporter cells; cell culture media fermented with Bifidobacterium longum subsp infantis and the substance; stimulation with TNFalpha or S. typhymurium
Procedure: HT29 cells harbouring an expression plasmid with the NFkB promoter controlling an alkaline phosphatase were treated with different media and challenged with the proinflammatory TNFalpha or a gram negative bacterium such as Salmonella typhimurium. Treatments were cell culture media fermented with Bifidobacterium longum subsp infantis and (i) lactose or (ii) Lacto-N-tetraose (LNT).
The cells harbored an expression plasmid with the NF-κB promoter controlling an alkaline phosphatase so that stimulation by TNF-α or a gram negative bacterium would be indicated by fluorescence generated by interaction of the alkaline phosphatase with a fluorogenic substrate. […] This indicates LNT to exert a strong anti-inflammatory effect. Conditioned media with LNT lead to higher resistance of the cells upon proinflammatory TNFalpha or a gram negative bacterial stimulation. Intestinal epithelia cells in media conditioned by LNT (lacto-N-tetraose) and Bifidobacterium fermentation products are more resistant to proinflammatory stimulation by TNFalpha as compared to cells in a control medium conditioned by lactose and Bifidobacterium fermentation products.

| Structure (SMILES) | activation of the inflammation marker nuclear factor kappa B (NFkB) |
| --- | --- |
| CC(=O)N[C@H]1[C@H](O[C@H]2[C@@H](O)[C@@H](CO)O[C@@H](O[C@H]3[C@H](O)[C@@H](O)C(O)O[C@@H]3CO)[C@@H]2O)O[C@H](CO)[C@@H](O)[C@@H]1O[C@@H]1O[C@H](CO)[C@H](O)[C@H](O)[C@H]1O (some centres unmarked) [LNT, lacto-N-tetraose] | no stimulation |
| OC[C@H]1O[C@@H](O[C@H]2[C@H](O)[C@@H](O)C(O)O[C@@H]2CO)[C@H](O)[C@@H](O)[C@H]1O (some centres unmarked) [lactose] | very strong stimulation |
